# US20020164266A1, “Microbicidal mixtures” (priority 2001, published 2002)
# Experiments:
# Type in all cases: cell-based
# Bacillus subtilis = assay: Synergism (BNPD/MIT), MIC values for Bacillus subtilis; conditions: read-out: MIC values for Bacillus subtilis
# Source text: (§1) The mixtures according to the invention have synergistic activity. The observed synergism can be determined by the following mathematical equation (see F. C. Kull, P. C. Elisman, H. D. Sylwestrowicz and P. K. Mayer, Appl. Microbiol. 9, 538 (1961): [formula]
# (§2) Qa=the amount of component A in the active compound mixture which achieves the desired effect, i.e. no microbial growth.
# (§3) QA=the amount of component A which, when used on its own, suppresses the growth of the microorganisms.
# (§4) Qb=the amount of component B in the active compound mixture which suppresses the growth of the micoorganisms.
# (§5) QB=the amount of component B which, when used on its own, suppresses the growth of the microorganisms.
# (§6) A synergistic index of SI<1 indicates a synergistic effect for the mixture in question. […] All parts and percentages are by weight unless otherwise indicated.
# Test pathogen: Bacillus subtilis
# (§7) In brackets=mixing ratios of the pure active compounds
# Pseudomonas fluorescens = assay: Synergism (BNPD/MIT), MIC values for Pseudomonas fluorescens; conditions: read-out: MIC values for Pseudomonas fluorescens
# Source text: as §1, §2, §3, §4, §5, §6
# Test pathogen: Pseudomonas fluorescens
# as §7
# Pseudomonas aeruginosa = assay: Synergism (BNPD/MIT), MIC values for Pseudomonas aeruginosa; conditions: read-out: MIC values for Pseudomonas aeruginosa
# Source text: as §1, §2, §3, §4, §5, §6
# Test pathogen: Pseudomonas aeruginosa
# as §7
Compound,MIC (Bacillus subtilis) [µg/mL],MIC (Pseudomonas fluorescens) [µg/mL],MIC (Pseudomonas aeruginosa) [µg/mL]
"Cn1sccc1=O [MIT, 2-methyl-2H-isothiazol-3-one]",25,10,10
"O=[N+]([O-])C(Br)(CO)CO [BNPD, 2-bromo-2-nitropropanediol]",10,10,10
